One data set concerns 5'-nucleotidase. As to conditions: Crotalus atrox, pH 7.3.
For data set [1] the following is noted: in vivo; cited from earlier work.

These results are taken from patent EP0821692B1, “IMMUNOPOTENTIATING INOSINE MONOPHOSPHATE 5'-NUCLEOTIDASE RESISTANT DERIVATIVES AND USES THEREOF” (UNIVERSITY OF SOUTH FLORIDA, priority 1995, dated 1996).

As to `Nc1ncnc2c1ncn2[C@@H]1O[C@H](COP(=O)(O)O)[C@@H](O)[C@H]1O` [Adenosine MP, adenosine-5'-monophosphate], the “Hydrolysis (%)” value with 5'-nucleotidase turned out to be 86.0%.
For the compound isoprinosine, the half-life entry in data set [1] is “less than four hours”.
